Measurements: patent US7812022B2 (GlaxoSmithKline LLC, priority 2004, dated 2010)
Read-outs that look alike come from different tables or passages of the source.

Experiments:
[1] = system: BT474 and HN5 tumor cell lines; assay: Methylene blue growth inhibition assay (cellular Method A); type: cell-based, Human; details: 3 days, read-out: Activity (Method): growth inhibition IC50 class
Experimental: Human breast (BT474) and head and neck (HN5) were cultured in low glucose DMEM (Life Technologies 12320-032) containing 10% fetal bovine serum (FBS). Human colon tumor cells (Colo205) were cultured in DMEM (Invitrogen, 10564) containing 10% FBS. The SV40 transformed human mammary epithelial cell line HB4a was transfected with either human H-ras cDNA (HB4a r4.2) or the human c-ErbB2 cDNA (HB4a c5.2). The HB4a clones were cultured in RPMI containing 10% FBS, insulin (5 g/mL), hydrocortisone (5 g/mL), supplemented with the selection agent hygromycin B (50 g/mL). All lines were grown in a humidified incubator at 37° C. in 95% air, 5% CO2. Cells were harvested using trypsin/EDTA, counted using a haemocytometer, and plated in 100 microliters of the appropriate media, at the following densities, in a 96-well tissue culture plate (Falcon 3075): BT474 10,000 cells/well, HN5 3,000 cells/well. The next day, compounds were diluted in DMEM containing […] gentamicin, at twice the final required concentration, from 10 mM stock solutions in DMSO. 100 microliters/well of these dilutions were added to the 100 microliters of media currently on the cell plates. Medium containing 0.6% DMSO was added to control wells. Compounds diluted in DMEM were added to all cell lines. The final concentration of DMSO in all wells was 0.3%. Cells were returned to the incubator (37° C., 10% CO2) for 3 days. Medium was then removed by aspiration. Cell biomass was estimated by staining cells with 90 microliters per well methylene blue (Sigma M9140, 0.5% in 1:1 ethanol:water), and incubation at rt for at least 30 minutes. Stain was removed, and the plates rinsed by immersion in deionized water and air-dried. To release stain from the cells 100 microliters of solubilization solution was added (1% N-lauroyl sarcosine, Sodium salt, Sigma L5125, in PBS), and plates were shaken gently for about 30 minutes. Optical density at 620 nm was measured on a microplate reader. Percent inhibition of cell growth was calculated relative to vehicle treated control wells. Concentration of compound that inhibits 50% of control cell growth (IC50) was interpolated using nonlinear regression (Levenberg-Marquardt) and the equation, y=Vmax*(1−(x/(K+x)))+Y2, where “K” was equal to the IC50. Method B: Celltiter Glo® Growth Inhibition Assays

[2] = target: T1, ErbB2 or EGFR; assay: ErbB family substrate phosphorylation enzyme assay (HTRF), Method A or Method B; type: biochemical
T1 construct: enzymes purified from a baculovirus expression system; Reagent production was conducted essentially as described in Brignola, P. S., et al, (2002) J. Biol. Chem. 277(2): 1576-1585
Experimental: Compounds of the present invention were tested for EGFR, ErbB-2, and ErbB-4 protein tyrosine kinase inhibitory activity in substrate phosphorylation assays using enzymes purified from a baculovirus expression system. Reagent production was conducted essentially as described in Brignola, P. S., et al, (2002) J. Biol. Chem. 277(2): 1576-1585.
The method measures the ability of the isolated enzyme to catalyse the transfer of the gamma-phosphate from ATP onto the tyrosine residue of a biotinylated synthetic peptide referenced “Peptide C” in Brignola, P. S., et al, (2002) J. Biol. Chem. 277(2):1576-1585. The extent of tyrosine phosphorylation was measured using an anti-phosphotyrosine antibody, and quantified by homogenous time-resolved fluorescence (HTRF).
Reactions were performed in black 384-well polystyrene flat-bottom plates in a final volume of 20 ul. Assays were performed by adding 10 μl of each of the following solutions, substrate Mix and enzyme mix: The Substrate mix contained 100 mM 3-[N-morpholino]propanesulfonic acid (MOPS) (pH 7.5), 2 mM MnCl2, 20 μM ATP, 0.01% Tween-20, 0.1 mg/mL (BSA), 0.8 uM peptide substrate, and 1 mM dithiothreitol. The enzyme mix contained 100 mM MOPS (pH7.5); 0.01% Tween-20; 0.1 mg/mL BSA, and either 0.8 nM EGFR, 10 nM ErbB2, or 1 nM ErbB4
During the course of these studies, two separate methods have been used to measure the potency of compounds. In Method A, the substrate mix was added to the compound plates first, then the reaction was started by adding the enzyme mix. In Method B, the enzyme mix was added to the compound plates and the plates were incubated at 20° C. for 1 hour. The reactions were then started by adding the substrate mix.
After initiating the reaction with either method describe above, the reactions were allowed to proceed for 90 minutes at 20° C. The reactions were then terminated by the addition of 20 μl 100 mM EDTA to each well. 40 μl/well of HTRF detection mix were added to the assay plates. The final concentrations of the detection reagents were: 100 mM HEPES (pH7.5), 0.1 mg/mL BSA, 15 nM streptavidin-labeled allophycocyanin (PerkinElmer), and 1 nM europium-labeled anti-phosphotyrosine antibody (PerkinElmer). Assay plates were left unsealed and were counted in a Wallac Multilabel Counter 1420 (PerkinElmer).
Compounds under analysis were dissolved in Me2SO to 1.0 mM and serially diluted 1 to 3 with Me2SO through twelve dilutions. 1 μl of each concentration was transferred to the corresponding well of an assay plate. This creates a final compound concentration range from 0.00027 to 47.6 μM.
The data for dose responses were plotted as % Inhibition calculated with the data reduction formula 100*(1−(U1−C2)/(C1−C2)) versus concentration of compound where U is the unknown value, C1 is the average control value obtained for 4.76% DMSO, and C2 is the average control value obtained for 0.035 M EDTA. Data were fitted with a curve described by: y=((Vmax*x)/(K+x))+Y^2 where Vmax is the upper asymptote, Y2 is the Y intercept, and K is the IC50. The results for each compound were recorded as pIC50s, calculated as follows: pIC50=−Log 10(K)

[3] = Method A: substrate mix added first, reaction started with enzyme mix

| IC50 ([1]; Homo sapiens, BT-474, 72 h) [nM] | SMILES | Activity (Method): pIC50 class against ErbB2 or EGFR [2, 3] | also measured |
| --- | --- | --- | --- |
| < 100 | CC(c1cccc(Nc2nccc(-c3c(-c4cccc(NC(=O)c5c(F)cccc5F)c4)nn4ccccc34)n2)c1)S(C)(=O)=O (single isomer, unassigned) [Example 123, 2,6-Difluoro-N-(3-{3-[2-({3-[1-(methylsulfonyl)ethyl]-phenyl}amino)-4-pyrimidinyl]pyrazolo[1,5-a]pyridin-2-yl}phenyl)benzamide] |  |  |
|  | CC(c1cccc(Nc2nccc(-c3c(-c4cccc(NC(=O)c5c(F)cccc5F)c4)nn4ccccc34)n2)c1)S(C)(=O)=O (single isomer, unassigned) [Example 124, 2,6-Difluoro-N-(3-{3-[2-({3-[1-(methylsulfonyl)ethyl]-phenyl}amino)-4-pyrimidinyl]pyrazolo[1,5-a]pyridin-2-yl}phenyl)benzamide] |  | IC50 [1]: < 100 nM |
| 100 to 1000 | Cn1cccc1C(=O)Nc1cccc(-c2nn3ccccc3c2-c2ccnc(Nc3ccc4c(c3)OCCO4)n2)c1 [Example 3, 1-Methyl-1H-pyrrole-2-carboxylic acid (3-{3-[2-(2,3-dihydro-benzo[1,4]dioxin-6-ylamino)-pyrimidin-4-yl]-pyrazolo[1,5-a]pyridin-2-yl}-phenyl)-amide] | +++ (A) (at least one pIC50 measurement of greater than 7 against either ErbB2 or EGFR) |  |
| < 100 | O=C(Nc1cccc(-c2nn3ccccc3c2-c2ccnc(Nc3ccc4c(c3)OCCO4)n2)c1)c1ccccc1Cl [Example 6, 2-Chloro-N-(3-{3-[2-(2,3-dihydro-benzo[1,4]dioxin-6-ylamino)-pyrimidin-4-yl]-pyrazolo[1,5-a]pyridin-2-yl}-phenyl)-benzamide] | +++ (A) (at least one pIC50 measurement of greater than 7 against either ErbB2 or EGFR) |  |
| 100 to 1000 | S=C(Nc1cccc(-c2nn3ccccc3c2-c2ccnc(Nc3ccc4c(c3)OCCO4)n2)c1)c1ccccc1 [Example 7, N-(3-{3-[2-(2,3-Dihydro-benzo[1,4]dioxin-6-ylamino)-pyrimidin-4-yl]-pyrazolo[1,5-a]pyridin-2-yl}-phenyl)-thiobenzamide] | ++ (A) (at least one pIC50 measurement greater than 6 against either ErbB2 or EGFR but no measurement greater than pIC50 of 7) |  |
| 100 to 1000 | S=C(Nc1cccc(-c2nn3ccccc3c2-c2ccnc(Nc3ccc4c(c3)OCCO4)n2)c1)c1ccccc1Cl [Example 8, 2-Chloro-N-(3-{3-[2-(2,3-dihydro-benzo[1,4]dioxin-6-ylamino)-pyrimidin-4-yl]-pyrazolo[1,5-a]pyridin-2-yl}-phenyl)-thiobenzamide] | ++ (A) (at least one pIC50 measurement greater than 6 against either ErbB2 or EGFR but no measurement greater than pIC50 of 7) |  |
| 100 to 1000 | COc1cccc(C(=S)Nc2cccc(-c3nn4ccccc4c3-c3ccnc(Nc4ccc5c(c4)OCCO5)n3)c2)c1 [Example 9, N-(3-{3-[2-(2,3-Dihydro-benzo[1,4-]dioxin-6-ylamino)-pyrimidin-4-yl]-pyrazolo[1,5-a]pyridin-2-yl}-phenyl)-3-methoxy-thiobenzamide] | ++ (A) (at least one pIC50 measurement greater than 6 against either ErbB2 or EGFR but no measurement greater than pIC50 of 7) |  |
| 100 to 1000 | Cn1cccc1C(=S)Nc1cccc(-c2nn3ccccc3c2-c2ccnc(Nc3ccc4c(c3)OCCO4)n2)c1 [Example 10, 1-Methyl-1H-pyrrole-2-carbothioic acid (3-{3-[2-(2,3-dihydro-benzo[1,4]dioxin-6-ylamino)-pyrimidin-4-yl]pyrazolo[1,5-a]pyridin-2-yl}-phenyl)-amide] | ++ (A) (at least one pIC50 measurement greater than 6 against either ErbB2 or EGFR but no measurement greater than pIC50 of 7) |  |
| < 100 | O=C(Nc1cccc(-c2nn3ccccc3c2-c2ccnc(Nc3cccc(F)c3)n2)c1)c1ccccc1F [Example 12, 2-Fluoro-N-(3-{3-[2-(3-fluoro-phenylamino)-pyrimidin-4-yl]-pyrazolo[1,5-a]pyridin-2-yl}-phenyl)-benzamide] |  | Activity (Method): pIC50 class against ErbB2 or EGFR ([2]; Method B: enzyme mix pre-incubated with compound 1 hour at 20° C., started with substrate mix): ++ (B) (at least one pIC50 measurement greater than 6 against either ErbB2 or EGFR but no measurement greater than pIC50 of 7) |
| 100 to 1000 | O=C(Nc1cccc(-c2nn3ccccc3c2-c2ccnc(Nc3cccc(F)c3)n2)c1)c1ccccn1 [Example 22, Pyridine-2-carboxylic acid (3-{3-[2-(3-fluoro-phenylamino)-pyrimidin-4-yl]-pyrazolo[1,5-a]pyridin-2-yl}-phenyl)-amide] |  |  |
| 100 to 1000 | Cc1ccc2c(-c3ccnc(Nc4cccc(F)c4)n3)c(-c3cccc(NC(=O)c4cc(F)ccc4F)c3)nn2c1 [Example 40, 2,5-Difluoro-N-[3-(3-{2-[(3-fluorophenyl)amino]-4-pyrimidinyl}-6-methylpyrazolo[1,5-a]pyridin-2-yl)phenyl]benzamide] |  |  |
|  | O=C(Nc1cccc(-c2nn3ccccc3c2-c2ccnc(Nc3cccc(F)c3)n2)c1)c1ccccn1 [Example 76, N-[3-(3-{2-[(3-fluorophenyl)amino]-4-pyrimidinyl}pyrazolo[1,5-a]pyridin-2-yl)phenyl]-2-pyridinecarboxamide] |  | Activity (Method): pIC50 class against ErbB2 or EGFR ([2]; method not given): +++ (at least one pIC50 measurement of greater than 7 against either ErbB2 or EGFR) |
| 100 to 1000 | Cc1nc2ccc(Nc3nccc(-c4c(-c5cccc(NC(=O)c6c(F)cccc6F)c5)nn5ccccc45)n3)cc2nc1C [Example 97, N-[3-(3-{2-[(2,3-Dimethyl-6-quinoxalinyl)amino]-4-pyrimidinyl}pyrazolo[1,5-a]pyridin-2-yl)phenyl]-2,6-difluorobenzamide] |  |  |
| 100 to 1000 | O=C(Cc1ccccc1)c1ccc(Nc2nccc(-c3c(-c4cccc(NC(=O)c5c(F)cccc5F)c4)nn4ccccc34)n2)cc1 [Example 102, 2,6-Difluoro-N-{3-[3-(2-{[4-(phenylacetyl)phenyl]-amino}-4-pyrimidinyl)pyrazolo[1,5-a]pyridin-2-yl]-phenyl}benzamide] |  |  |
